Results as given in ChEMBL document CHEMBL1129895, “A novel series of matrix metalloproteinase inhibitors for the treatment of inflammatory disorders” (Bioorg Med Chem Lett, 1997).
Square brackets hold non-standard residues; d marks the D form. Peptide text beside a SMILES is read from it. * marks the point of attachment. Propionyl = CCC(=O)*; Mpa = O=C(O)CCS

Legend:
[1] = target: T1, Matrix metalloproteinase-9 (Rattus norvegicus, UniProt P50282); test: Compound was tested for its inhibitory activity against Matrix metalloprotease-9 (MMP-9) in adjuvant arthritic rat model of rheumatoid arthritis
T1 sequence (P50282 whole entry): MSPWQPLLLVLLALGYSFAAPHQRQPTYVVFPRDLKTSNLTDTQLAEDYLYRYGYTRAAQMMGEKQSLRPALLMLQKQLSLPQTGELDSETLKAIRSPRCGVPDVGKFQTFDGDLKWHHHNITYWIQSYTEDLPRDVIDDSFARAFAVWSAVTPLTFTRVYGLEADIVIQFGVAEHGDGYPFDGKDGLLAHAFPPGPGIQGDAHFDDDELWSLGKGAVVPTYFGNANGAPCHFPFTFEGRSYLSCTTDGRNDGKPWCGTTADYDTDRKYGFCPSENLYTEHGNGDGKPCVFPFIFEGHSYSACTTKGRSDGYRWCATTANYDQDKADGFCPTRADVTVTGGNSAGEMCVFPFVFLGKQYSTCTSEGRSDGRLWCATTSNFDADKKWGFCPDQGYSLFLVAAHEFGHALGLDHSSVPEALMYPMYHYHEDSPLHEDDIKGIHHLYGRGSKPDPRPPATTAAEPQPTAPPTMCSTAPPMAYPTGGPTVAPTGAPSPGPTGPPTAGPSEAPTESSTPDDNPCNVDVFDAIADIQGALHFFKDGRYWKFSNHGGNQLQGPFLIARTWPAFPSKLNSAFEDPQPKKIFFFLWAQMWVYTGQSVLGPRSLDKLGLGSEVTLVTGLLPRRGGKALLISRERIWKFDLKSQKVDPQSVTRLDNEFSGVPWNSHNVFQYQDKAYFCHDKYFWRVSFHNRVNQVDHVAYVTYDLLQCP

Neutrophil collagenase = Neutrophil collagenase (Rattus norvegicus, UniProt O88766); test: Compound was tested for its inhibitory activity against Matrix metalloprotease-8 (MMP-8) in adjuvant arthritic rat model of rheumatoid arthritis
Neutrophil collagenase, sequence (O88766 whole entry): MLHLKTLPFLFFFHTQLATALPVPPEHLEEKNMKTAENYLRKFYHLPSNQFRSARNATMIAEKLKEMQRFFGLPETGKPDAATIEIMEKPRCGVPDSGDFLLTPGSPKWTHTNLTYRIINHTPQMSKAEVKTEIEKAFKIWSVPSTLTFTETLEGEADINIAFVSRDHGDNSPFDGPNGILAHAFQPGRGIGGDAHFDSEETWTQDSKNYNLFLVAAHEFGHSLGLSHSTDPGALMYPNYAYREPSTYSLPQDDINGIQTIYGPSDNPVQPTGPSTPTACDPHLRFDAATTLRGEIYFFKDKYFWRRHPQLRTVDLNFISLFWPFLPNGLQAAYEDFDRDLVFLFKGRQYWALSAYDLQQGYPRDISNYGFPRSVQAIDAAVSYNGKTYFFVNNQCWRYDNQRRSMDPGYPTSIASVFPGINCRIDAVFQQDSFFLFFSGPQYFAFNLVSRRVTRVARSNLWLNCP

[2] = target: T1, Matrix metalloproteinase-9; test: Compound was tested for its inhibitory activity against Matrix metalloprotease-9 in adjuvant arthritic rat model of rheumatoid arthritis
Rattus norvegicus = test: Inhibition of hind paw swelling was observed by the administration of compound at 40 mg/kg/day, perorally in adjuvant arthritic rat model of rheumatoid arthritis; assay type: functional; conditions: route oral

Row | Structure (SMILES) | IC50 [1] [nM] | IC50 (Neutrophil collagenase) [nM] | IC50 [2] [nM] | inhibition in vivo at 40 mg/kg/day (Rattus norvegicus) [%]
1 | CNC(=O)[C@H](Cc1ccccc1)NC(=O)[C@H](CC(C)C)NC(=O)CSC |  | 2600 | 4600 | 
2 | CNC(=O)[C@H](Cc1ccccc1)NC(=O)[C@H](CC(C)C)NC(=O)CCS ([Mpa]-Leu-Phe-NHMe) |  | 5100 | 9600 | 
3 | CNC(=O)[C@H](Cc1ccccc1)NC(=O)[C@@H](NC(=O)CS)C(C)O (stereo partly specified) |  | 4100 | 1700 | 
4 | CCC(=O)N[C@@H](CC(C)C)C(=O)N[C@@H](Cc1ccccc1)C(=O)NC (Propionyl-Leu-Phe-NHMe) |  | > 100000 | 30000 | 

These reach a lower IC50 (Neutrophil collagenase). Values come first.

Row | IC50 [1] [nM] | IC50 (Neutrophil collagenase) [nM] | IC50 [2] [nM] | Structure (SMILES) | inhibition in vivo at 40 mg/kg/day (Rattus norvegicus) [%]
5 | 120 | 20 |  | CNC(=O)[C@H](Cc1c[nH]c2ccccc12)NC(=O)[C@H](CSC)NC(=O)CS | 
6 | 30 | 80 |  | CNC(=O)[C@H](Cc1c[nH]c2ccccc12)NC(=O)[C@H](CC(C)C)NC(=O)CS | 
7 | 7 | 12 |  | CNC(=O)[C@H](Cc1cscn1)NC(=O)[C@H](CC(C)C)NC(=O)CS | 
8 |  | 50 | 90 | CNC(=O)[C@H](Cc1ccccc1)NC(=O)[C@H](CC(C)C)NC(=O)CS | 40
9 |  | 480 | 350 | CNC(=O)[C@H](Cc1ccccc1)NC(=O)[C@H](C[S+](C)[O-])NC(=O)CS (stereo partly specified) | 
10 |  | 6 | 13 | CNC(=O)[C@H](Cc1ccccc1)NC(=O)[C@H](CSC)NC(=O)CS | 
